Results as given in patent publication US8680132B2, “Spiro-oxindole MDM2 antagonists” (priority 2010, dated 2014).
Read-outs that look alike come from different tables or passages of the source.

What was measured:
[1] = system: PC-3 (deleted p53); assay: Cell growth assay (WST-8); format: cell-based; settings: read-out: IC50 PC-3 (deleted p53)
[2] = system: SJSA-1 (p53 wild-type); assay: Cell growth assay (WST-8); format: cell-based
[3] = biological target: recombinant human His-tagged MDM2 protein (residues 1-118) (Homo sapiens (Human), UniProt Q00987); assay: Fluorescence-polarization MDM2 binding assay (Example 2); settings: Table 2A; no unit in the cell (μM unless otherwise indicated)
[4] = system: LNCAP (p53 wild-type); assay: Cell growth assay (WST-8); format: cell-based, human
[5] = system: HCT-116 (p53 wild-type); assay: Cell growth assay (WST-8); format: cell-based, human
[6] = system: HCT-116 (p53—/—); assay: Cell growth assay (WST-8); format: cell-based
[7] = Homo sapiens, SJSA-1; read-out: IC50 SJSA-1 (p53 wild-type)
[8] = Homo sapiens, LNCaP; read-out: IC50 LNCAP (p53 wild-type)
[9] = Homo sapiens, HCT-116, read-out: IC50 HCT-116 (p53 wild-type)
[10] = Homo sapiens, HCT-116, read-out: IC50 HCT-116 (p53—/—)
[11] = Homo sapiens, LNCaP, read-out: IC50 LNCAP (p53 wild-type)

Chain of recombinant human His-tagged MDM2 protein (residues 1-118) (Q00987 1-118): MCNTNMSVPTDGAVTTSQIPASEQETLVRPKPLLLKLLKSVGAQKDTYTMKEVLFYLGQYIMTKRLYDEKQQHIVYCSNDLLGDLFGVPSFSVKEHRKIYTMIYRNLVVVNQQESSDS

SMILES: CC(C)(C)C[C@@H]1N[C@@H](C(=O)N[C@H]2C[C@@](C)(O)C2)[C@H](c2cccc(Cl)c2F)[C@]12C(=O)Nc1c2ccc(Cl)c1F
- IC50 [1]: 10.1 µM
- IC50 [2, 7]: 0.2 µM
- IC50 [3]: < 0.1 µM
- IC50 [4, 8]: 0.3 µM

SMILES: CC(C)(C)C[C@@H]1N[C@@H](C(=O)NC2CCC(C)(O)CC2)[C@H](c2cccc(Cl)c2F)[C@]12C(=O)Nc1cc(Cl)ccc12 (stereo partly shown)
- IC50 [1]: 11.1 µM
- IC50 [5, 9]: 0.1 µM
- IC50 ([2]; Homo sapiens, SJSA-1, read-out: IC50 SJSA-1 (p53 wild-type)): 0.1 µM
- IC50 [6, 10]: 10.6 µM
- IC50 [4, 11]: 0.2 µM

SMILES: O=C(NC1CCC(O)CC1)[C@@H]1N[C@@H](c2ccccc2)[C@@]2(C(=O)Nc3cc(Cl)ccc32)[C@H]1Cc1ccccc1 (single isomer, unassigned) [CB083-Isomer B]
- IC50 [3]: > 5 µM

SMILES: CC(C)(C)C[C@@H]1N[C@@H](C(=O)NC2CCC(O)CC2)[C@H](Cc2ccccc2)[C@]12C(=O)Nc1cc(Cl)ccc12 (single isomer, unassigned) [CB084-Isomer B]
- IC50 [3]: > 5 µM

SMILES: O=C(NC1CCC(O)CC1)[C@@H]1N[C@@H](c2ccccc2)[C@@]2(C(=O)Nc3cc(Cl)ccc32)[C@H]1c1cccc(Cl)c1F (single isomer, unassigned) [CB087-Isomer B]
- IC50 [3]: < 0.5 µM

SMILES: CC(C)(C)C[C@H]1N[C@@H](C(=O)N[C@H]2C[C@@](C)(O)C2)[C@H](c2cccc(Cl)c2)[C@@]12C(=O)Nc1cc(F)c(F)cc12 [C035]
- IC50 [1]: > 10 µM
- IC50 ([5]; Homo sapiens, HCT-116; read-out: IC50 HCT-116 (p53 wild-type)): < 5 µM
- IC50 [2, 7]: < 5 µM
- IC50 ([6]; Homo sapiens, HCT-116; read-out: IC50 HCT-116 (p53—/—)): > 10 µM
- IC50 [3]: < 3 µM
- IC50 [4, 8]: < 5 µM

SMILES: CC(C)(C)C[C@@H]1N[C@@H](C(=O)N[C@H]2C[C@@](C)(O)C2)[C@H](c2cc(Cl)ccc2F)[C@]12C(=O)Nc1cc(Cl)ccc12 [C11701]
- IC50 [1]: 19.6 µM
- IC50 [5, 9]: 1.4 µM
- IC50 [6, 10]: 21.8 µM
- IC50 [4, 11]: 1.5 µM
